We go through 3 compounds from BindingDB's records for doi:10.1021/jm9805182 (University of Minnesota, 1999).

Experiment [1] can be described thus: Mutant factor of the compound against mu-[K303E] with Opioid receptor kappa 1 for binding affinity.
The nature of experiment [2]: Mutant factor against mu-[K303E] with Opioid receptor kappa 1 for binding affinity.

In the case of `NC(N)=Nc1ccc2[nH]c3c(c2c1)C[C@@]1(O)[C@H]2Cc4ccc(O)c5c4[C@@]1(CCN2CC1CC1)[C@H]3O5`, in experiment [1], the affinity, expressed as Ki, was 60 pM.
`Oc1ccc2c3c1O[C@H]1c4[nH]c5c(c4C[C@@]4(O)[C@@H](C2)N(CC2CC2)CC[C@]314)C[C@@]1(O)[C@H]2Cc3ccc(O)c4c3[C@@]1(CCN2CC1CC1)[C@H]5O4` [C18130] came in with an inhibition constant (Ki) in experiment [2] of 770 pM.
With `N#CN=C(N)Nc1ccc2[nH]c3c(c2c1)C[C@@]1(O)C2Cc4ccc(O)c5c4[C@@]1(CCN2CC1CC1)[C@H]3O5` [5'-[N-(N'-Cyano)guanidinyl]-17-cyclopropylmethyl-6,7-didehydro-4,5alpha-epoxy-3,14-dihydroxyindolo[2',3':6,7]morphinan], in experiment [2], the Ki worked out at 290 pM.

For orientation: Ki means the dissociation constant of the complex between target and ligand, obtained from inhibition or displacement.
